According to publication PMC11320734 (ACS Pharmacology & Translational Science, 2024):
Read-outs that look alike come from different tables or passages of the source.

How the values were obtained:
[1] = Microsomal clearance; format: in vitro ADME; settings: mouse, mouse microsomes; Table 3
Description: The hepatocyte clearance assay was performed as previously described.[39] For mice hepatocytes, the suspension cultures were either freshly prepared by liver perfusion or prepared from cryopreserved hepatocyte batches (pooled C57BL6 mouse hepatocytes were purchased from BioreclamationIVT (NY, USA)). For human hepatocytes, commercially available, pooled (5–20 donors), cryopreserved samples from nontransplantable liver tissues were used. For the suspension cultures, Nunc U96 PP-0.5 mL (Nunc Natural, 267245) plates were used, which were incubated in a Thermo Forma incubator from Fischer Scientific (Wohlen, Switzerland) equipped with shakers from Variomag Teleshake (Sterico, Wangen, Switzerland) for maintaining cell dispersion. The cell culture medium was William’s media supplemented with glutamine, antibiotics (100 IU/mL Penicillin-Streptomycin, Gibco), insulin, dexamethasone, and 10% fetal calf serum (FCS). Incubations of a test compound at 1 μM test concentration in suspension cultures of 1 × 10^6 cells mL^–1 (∼1 μg μL^–1 protein concentration) were performed in 96-well plates and shaken at 900 rpm for up to 2 h in a 5% CO2 atmosphere at 37 °C. After 3, 6, 10, 20, 40, 60, and 120 min, a 100 μL cell suspension in each well was quenched with 200 μL methanol containing an internal standard. Samples were then cooled and centrifuged before analysis by LC-MS/MS. […]

[2] = Fraction unbound in plasma; format: in vitro ADME
Text: Table 3 Physicochemical and ADMET Properties of RNB-61 | column: 481.556

[3] = biological target: PPARg (Homo sapiens, UniProt P37231); assay: Endocannabinoid target profiling: PPARg; settings: Table S1; read-out: PPARg (Ki, IC50)
PPARg, sequence (P37231 whole entry, species assumed): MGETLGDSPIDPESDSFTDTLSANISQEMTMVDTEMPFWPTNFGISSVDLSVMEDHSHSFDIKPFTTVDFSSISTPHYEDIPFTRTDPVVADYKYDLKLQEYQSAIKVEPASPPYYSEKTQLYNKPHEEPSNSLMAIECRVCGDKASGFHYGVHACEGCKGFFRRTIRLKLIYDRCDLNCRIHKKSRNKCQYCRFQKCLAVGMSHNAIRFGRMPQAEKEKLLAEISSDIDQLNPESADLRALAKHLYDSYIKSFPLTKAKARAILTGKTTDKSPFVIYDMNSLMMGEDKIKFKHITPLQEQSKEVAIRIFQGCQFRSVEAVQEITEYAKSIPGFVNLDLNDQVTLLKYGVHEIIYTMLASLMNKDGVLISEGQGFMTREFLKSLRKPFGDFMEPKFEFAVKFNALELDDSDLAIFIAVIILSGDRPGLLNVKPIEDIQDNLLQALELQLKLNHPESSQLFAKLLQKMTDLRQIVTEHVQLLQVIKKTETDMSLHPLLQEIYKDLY

[4] = biological target: hERG channel (Homo sapiens, UniProt Q12809); assay: hERG inhibition; format: cell-based
hERG channel, sequence (Q12809 whole entry): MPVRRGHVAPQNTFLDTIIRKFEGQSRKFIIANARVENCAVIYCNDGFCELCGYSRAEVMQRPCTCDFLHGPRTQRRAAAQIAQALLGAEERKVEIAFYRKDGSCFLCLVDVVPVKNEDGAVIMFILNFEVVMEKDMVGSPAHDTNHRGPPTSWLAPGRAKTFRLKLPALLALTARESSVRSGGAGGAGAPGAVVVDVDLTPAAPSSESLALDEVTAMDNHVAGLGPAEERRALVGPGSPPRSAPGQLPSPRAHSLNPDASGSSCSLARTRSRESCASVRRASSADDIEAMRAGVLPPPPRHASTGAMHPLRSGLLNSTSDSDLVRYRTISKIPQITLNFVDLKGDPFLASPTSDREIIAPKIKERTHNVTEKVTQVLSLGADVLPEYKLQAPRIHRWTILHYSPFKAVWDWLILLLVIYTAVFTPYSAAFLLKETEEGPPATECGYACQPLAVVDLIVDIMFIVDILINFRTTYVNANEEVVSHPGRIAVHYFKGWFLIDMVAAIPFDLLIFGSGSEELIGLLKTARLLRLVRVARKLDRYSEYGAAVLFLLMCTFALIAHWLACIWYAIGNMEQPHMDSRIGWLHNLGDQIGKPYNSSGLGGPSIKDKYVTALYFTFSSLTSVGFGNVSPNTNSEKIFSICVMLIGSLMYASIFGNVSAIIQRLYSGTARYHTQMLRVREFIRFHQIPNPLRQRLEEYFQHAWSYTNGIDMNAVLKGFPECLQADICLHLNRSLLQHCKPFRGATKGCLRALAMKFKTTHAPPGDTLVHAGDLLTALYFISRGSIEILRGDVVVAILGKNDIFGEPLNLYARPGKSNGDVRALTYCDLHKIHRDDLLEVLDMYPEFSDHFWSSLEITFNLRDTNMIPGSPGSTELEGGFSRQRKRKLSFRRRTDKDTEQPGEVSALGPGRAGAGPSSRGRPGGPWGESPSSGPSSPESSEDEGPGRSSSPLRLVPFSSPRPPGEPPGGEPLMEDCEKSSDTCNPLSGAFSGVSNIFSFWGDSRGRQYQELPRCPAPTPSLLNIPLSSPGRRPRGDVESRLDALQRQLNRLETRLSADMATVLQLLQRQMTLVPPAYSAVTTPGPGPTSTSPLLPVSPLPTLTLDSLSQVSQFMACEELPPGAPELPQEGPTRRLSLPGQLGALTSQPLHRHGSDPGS

[5] = biological target: TRPA1 (Homo sapiens, UniProt O75762); assay: Endocannabinoid target profiling: TRPA1; settings: Table S1; read-out: TRPA1 (Ki, IC50)
TRPA1, sequence (O75762 whole entry, species assumed): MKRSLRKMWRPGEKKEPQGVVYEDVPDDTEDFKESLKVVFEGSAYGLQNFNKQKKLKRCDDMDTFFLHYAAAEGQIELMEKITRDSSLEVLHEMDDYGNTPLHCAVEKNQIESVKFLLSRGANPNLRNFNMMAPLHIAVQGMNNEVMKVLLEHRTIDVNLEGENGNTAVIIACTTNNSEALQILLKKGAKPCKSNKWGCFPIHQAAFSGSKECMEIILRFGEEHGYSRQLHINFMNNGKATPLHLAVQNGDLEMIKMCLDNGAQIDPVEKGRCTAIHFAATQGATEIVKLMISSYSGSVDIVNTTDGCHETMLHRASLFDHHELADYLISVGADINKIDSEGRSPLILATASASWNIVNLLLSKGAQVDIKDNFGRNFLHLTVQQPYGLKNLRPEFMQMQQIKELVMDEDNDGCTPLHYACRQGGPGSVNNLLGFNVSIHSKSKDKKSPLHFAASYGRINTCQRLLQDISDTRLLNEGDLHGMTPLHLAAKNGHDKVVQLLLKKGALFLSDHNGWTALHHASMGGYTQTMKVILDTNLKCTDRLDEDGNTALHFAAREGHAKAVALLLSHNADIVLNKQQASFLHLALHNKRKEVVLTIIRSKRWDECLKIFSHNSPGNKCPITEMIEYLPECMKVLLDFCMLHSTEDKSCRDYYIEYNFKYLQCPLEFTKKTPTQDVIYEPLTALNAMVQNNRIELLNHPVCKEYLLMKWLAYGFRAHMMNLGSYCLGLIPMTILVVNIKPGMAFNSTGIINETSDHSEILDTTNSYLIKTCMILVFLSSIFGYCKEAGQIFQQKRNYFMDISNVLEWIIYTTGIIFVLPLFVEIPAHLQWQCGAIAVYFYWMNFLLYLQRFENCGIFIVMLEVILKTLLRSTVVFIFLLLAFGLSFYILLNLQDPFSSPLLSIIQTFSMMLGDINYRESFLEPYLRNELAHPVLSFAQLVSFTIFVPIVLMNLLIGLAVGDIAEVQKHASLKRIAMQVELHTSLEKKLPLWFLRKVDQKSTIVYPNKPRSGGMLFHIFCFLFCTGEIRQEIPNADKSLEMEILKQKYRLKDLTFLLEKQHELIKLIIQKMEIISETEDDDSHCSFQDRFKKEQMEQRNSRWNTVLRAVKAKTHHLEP

[6] = pKa; format: physicochemical; settings: basic nitrogen N1 of the pyrazole ring
[7] = Octanol/water distribution coefficient (logD), CAMDIS assay; format: physicochemical
Description: For the determination of the octanol/water distribution coefficient (logD), the carrier-mediated distribution system (CAMDIS)-assay was used as described elsewhere.[38] Kinetic and thermodynamic solubilities were assessed using the lyophilization solubility assay (LYSA) and thermodynamic solubility assay (THESA), respectively. For the LYSA, the solubility of RNB- 61 in phosphate buffer at pH 6.5 from an evaporated 10 mM DMSO compound stock solution was measured. Two aliquots of the test compounds were dried and dissolved in phosphate buffer at pH 6.5. The solutions were then filtered and diluted (3 different dilution levels for each compound) before high throughput mass spectrometry (MS) analysis was performed in an Agilent RapidFire system. Each test compound was quantified using a 6-point calibration curve prepared with the same DMSO starting solution. For THESA, RNB-61 (8.6 mg per mL solvent/vehicle) was stirred in HPLC vials (9 × 12 × 32 mm, Waters) at 350 rpm for 15 h. The presence of solid particles was determined by microscopic analysis of 10 μL samples. If the active pharmacological ingredient (API) was completely dissolved, more solid API was added before stirring for another 15 h. This step was repeated for up to 96 h or until residual solid particles could be detected. Samples (0.5 mL) were transferred to Eppendorf Ultrafree filter tubes (Filter: PVDF 0.22 μm) and centrifuged at 14,500 rpm for 10 min. The filtrates were diluted in ethanol and analyzed by ultra-performance liquid chromatography (UPLC). Measurements were repeated in 0.05 M aqueous phosphate buffer and in fasted (FaSSIF) and fed (FeSSIF) simulated gastrointestinal fluids.

[8] = biological target: COX-2 (Homo sapiens, UniProt P35354); assay: Endocannabinoid target profiling: COX-2; format: biochemical
COX-2, sequence (P35354 18-604): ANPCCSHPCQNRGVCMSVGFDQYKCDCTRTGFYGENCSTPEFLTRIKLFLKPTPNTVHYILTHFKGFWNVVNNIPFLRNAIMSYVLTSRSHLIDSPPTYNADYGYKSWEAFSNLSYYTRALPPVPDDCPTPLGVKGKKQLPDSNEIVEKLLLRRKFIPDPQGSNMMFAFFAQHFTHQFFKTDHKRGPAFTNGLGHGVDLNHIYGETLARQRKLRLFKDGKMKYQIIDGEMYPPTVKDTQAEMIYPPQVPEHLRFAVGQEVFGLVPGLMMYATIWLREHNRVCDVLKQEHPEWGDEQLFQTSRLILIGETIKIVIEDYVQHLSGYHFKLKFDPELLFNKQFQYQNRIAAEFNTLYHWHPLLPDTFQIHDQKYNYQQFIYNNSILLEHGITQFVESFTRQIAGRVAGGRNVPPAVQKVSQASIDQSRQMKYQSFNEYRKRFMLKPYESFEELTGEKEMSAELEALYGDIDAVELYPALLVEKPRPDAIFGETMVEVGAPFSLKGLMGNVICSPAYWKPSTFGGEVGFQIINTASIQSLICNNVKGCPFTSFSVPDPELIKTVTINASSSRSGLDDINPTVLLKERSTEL

[9] = biological target: human wild type CB2R (Homo sapiens, UniProt P34972); assay: cAMP assay in CHO cells; format: cell-based; set-up: expressed in transfected cells; host or cells: CHO cells
human wild type CB2R, sequence (P34972 whole entry): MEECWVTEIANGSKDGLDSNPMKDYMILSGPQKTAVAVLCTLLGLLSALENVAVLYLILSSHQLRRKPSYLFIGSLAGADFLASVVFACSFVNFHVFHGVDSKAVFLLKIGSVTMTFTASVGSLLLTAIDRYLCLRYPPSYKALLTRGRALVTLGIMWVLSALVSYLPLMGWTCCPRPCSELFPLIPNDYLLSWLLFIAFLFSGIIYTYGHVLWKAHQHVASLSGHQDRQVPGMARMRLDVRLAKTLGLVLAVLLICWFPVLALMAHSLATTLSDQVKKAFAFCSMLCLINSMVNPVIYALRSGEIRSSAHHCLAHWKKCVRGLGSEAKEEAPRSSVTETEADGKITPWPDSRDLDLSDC

[10] = biological target: ABHD12 (Homo sapiens, UniProt Q8N2K0); assay: Endocannabinoid target profiling: ABHD12; format: biochemical
ABHD12, sequence (Q8N2K0 whole entry, species assumed): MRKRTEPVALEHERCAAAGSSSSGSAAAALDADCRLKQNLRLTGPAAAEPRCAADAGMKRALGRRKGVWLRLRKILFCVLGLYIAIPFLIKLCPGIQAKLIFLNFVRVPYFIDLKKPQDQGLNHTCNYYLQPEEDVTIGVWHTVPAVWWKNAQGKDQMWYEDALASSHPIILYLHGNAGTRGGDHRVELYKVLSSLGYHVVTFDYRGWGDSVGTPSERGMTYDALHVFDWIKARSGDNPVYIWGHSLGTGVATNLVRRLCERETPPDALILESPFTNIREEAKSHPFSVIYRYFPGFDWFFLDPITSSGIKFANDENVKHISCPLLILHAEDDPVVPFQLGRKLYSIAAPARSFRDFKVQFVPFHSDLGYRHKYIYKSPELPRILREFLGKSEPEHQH

[11] = biological target: MAGL (Homo sapiens, UniProt Q99685); assay: Endocannabinoid target profiling: MAGL; format: biochemical
MAGL, sequence (Q99685 whole entry, species assumed): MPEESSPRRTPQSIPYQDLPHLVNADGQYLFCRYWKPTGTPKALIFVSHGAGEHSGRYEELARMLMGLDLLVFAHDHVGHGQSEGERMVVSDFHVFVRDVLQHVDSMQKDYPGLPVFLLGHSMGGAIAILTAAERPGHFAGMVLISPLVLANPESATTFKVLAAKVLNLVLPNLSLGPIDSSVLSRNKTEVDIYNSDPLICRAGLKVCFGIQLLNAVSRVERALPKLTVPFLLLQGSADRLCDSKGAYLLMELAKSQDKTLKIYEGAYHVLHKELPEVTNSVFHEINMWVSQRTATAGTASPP

[12] = biological target: cynomolgus CB2R (Macaca fascicularis, UniProt G7NVV5); assay: cAMP assay in CHO cells; format: cell-based; settings: mean ± SD; read-out: EC50 cAMP assay, monkey CB2R
cynomolgus CB2R, sequence (G7NVV5 1-360): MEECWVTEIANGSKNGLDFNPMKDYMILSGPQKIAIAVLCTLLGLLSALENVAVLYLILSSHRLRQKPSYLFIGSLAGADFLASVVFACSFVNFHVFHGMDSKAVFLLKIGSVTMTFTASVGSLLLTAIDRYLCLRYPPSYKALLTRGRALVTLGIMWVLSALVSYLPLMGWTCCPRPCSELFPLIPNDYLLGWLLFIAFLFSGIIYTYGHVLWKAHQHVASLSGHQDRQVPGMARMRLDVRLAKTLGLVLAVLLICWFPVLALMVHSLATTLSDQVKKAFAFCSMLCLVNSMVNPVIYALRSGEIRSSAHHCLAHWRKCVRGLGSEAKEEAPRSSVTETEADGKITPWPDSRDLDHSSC

## Cn1c(C(C)(C)C)cc(=NC(=O)c2cc(C(F)(F)F)ccc2OCC(C)(C)O)n1CC1CCC1 [RNB-61]
[1]
  microsomal CLint: ≤ 10 µL/min/mg
[2]; human
  fraction unbound: 0.019
[2]; mouse
  fraction unbound: 0.019
[2]; rat
  fraction unbound: 0.017
[3]
  IC50: > 10 µM
[4]
  hERG inhibition: >10 µM
[5]
  IC50: > 50 µM
[6]
  pKa: 7.33
[6]; read-out: pKa
  pKa: 7.37
[7]; Table 3, read-out: clogP (cell says logD)
  logD: 3.34
[7]; octanol/water, read-out: logD
  logD: 3.3
[8]; Table S1, read-out: COX-2 (Ki, IC50)
  IC50: > 10 µM
[8]; screening concentration 10 μM
  inhibition of EC oxygenation (COX-2): did not inhibit
[9]; CHO, percentage normalized to 1 μM CP55940, read-out: Emax cAMP inhibition
  Emax: 100%
[9]; Table 1, mean ± SD, read-out: EC50 hCB2R (cAMP assay)
  EC50: 0.00031 ± 7e-05 µM
[9]; percentage normalized to 1 μM CP55940, listed as RBN-61
  Emax cAMP inhibition: same efficacy (Emax) as CP55,940
[10]; Table S1, read-out: ABHD12 (Ki, IC50)
  IC50: > 10 µM
[10]; screening concentration 10 μM
  inhibition of EC hydrolysis by ABHD12: did not inhibit
[11]; Table S1, read-out: MAGL (Ki, IC50)
  IC50: > 10 µM
[11]; screening concentration 10 μM
  inhibition of EC hydrolysis by MAGL: did not inhibit
[12]
  EC50: 0.0007 ± 3e-05 µM
